From patent publication US9714245B2, “Carboline compounds usable in the treatment of neurodegenerative diseases” (ALZPROTECT, priority 2013, dated 2017) come the findings set out here.

The test system of data set [1] is secreted Aβ1-40. Description: Aβ1-40 secretion by APP-transfected neuroblastoma cells (ELISA). Conditions: Homo sapiens, Neuroblastoma cell; SKNSH-SYSY APPWT cells; concentration decreasing secreted Aβ1-40 to 50% of basal amount. The class given is cell-based. The procedure:
(§1) Cell Cultures and Transfections to Test Activity on Aβ1-40 and Aβ1-42 Secretion
(§2) Human neuroblastoma cell line SKNSH-SYSY (ATCC® Catalog No. CRL-2266™), HEK (ATCC® CRL-1573™) and COS-1 (ATCC® CRL-1650™) cells were maintained in Dulbecco's modified Eagle medium (DMEM, GIBCO BRL) supplemented with 10% fetal calf serum, 2 mM L-glutamine, 1 mM non-essential amino acids, 50 units/ml penicillin/streptomycin (Invitrogen, France) in a 5% CO2 humidified incubator at 37° C. APP695 cDNA was subcloned into eukaryotic expression vector pcDNA3 (Invitrogen), allowing for a G418 (Invitrogen) selection of clones. This APP cDNA coding for the 695 amino acid long isoform was transfected into SKNSH-SYSY cells using the ethyleneimine polymer ExGen 500 (Euromedex) according to the manufacturer's instructions. The cells expressing APP (SKNSH-SYSY APP^WT) were selected by the addition of 200 μg/ml G418 in the cell medium. To quantify AR which released in the cell culture medium, the collected medium was spun at 200×g to eliminate the cell debris. The concentrations of secreted Aâ1-40 and Aβ1-42 were determined using the Human Aβ (1-40) Assay Kit (IBL) or the INNOTEST™ beta-Amyloid (1-42) ELISA Kit (Innogenetics), according to manufacturer's instructions. The results were expressed as IC50, i.e. the concentration able to decrease to 50% the basal amount of secreted Aβ peptide 1-40 and 1-42.
In general terms: An ELISA detects its analyte on a solid surface through an enzyme-linked reagent.

The test system of data set [2] is secreted Aβ1-42. Description: Aβ1-42 secretion by APP-transfected neuroblastoma cells (ELISA). To be noted: Homo sapiens, Neuroblastoma cell; SKNSH-SYSY APPWT cells; concentration decreasing secreted Aβ1-42 to 50% of basal amount. The class given is cell-based. The procedure:
as §1, §2

In data set [3] the test system is AICD. Put plainly: Quantification of AICD by Western blot in SY5Y-APPWT cells. The format is cell-based, Human. Conditions: compared to a control with a value of 100. On the procedure:
(§3) Quantifications of APP-CTFs and AICD
(§4) After treatment, SY5Y-APP^WT cells were scrapped and lysed in 1× Lysis Buffer (250 mM NaCl, 50 mM Tris, pH 8.8, 5 mM EDTA, 2.5% Triton X-100, 1% Deoxycholate, 0.1% SDS). For the Western blotting, an equal amount of total proteins (20 μg/lane) was loaded on a 16.5% Tris-Tricine or 8-16% Tris-Glycine polyacrylamide gel.
(§5) SDS-polyacrylamide gel electrophoresis (PAGE) was performed using the Criterion™ Tris-Tricine-precast or Bis-Tris-precast criterion gels (Bio-Rad Bioresearch division). Proteins were transferred to a […] nitrocellulose membrane (Hybond, Amersham Biosciences) at 2.5 mA/cm2 per gel using the Criterion™ Blotter system (Amersham Biosciences), according to the manufacturer's instructions. Proteins were reversibly stained with Ponceau Red in order to check the quality of the transfer of protein. The membranes were blocked in 25 mM Tris-HCl pH 8.0, 150 mM NaCl, 0.1% Tween-20 (v/v) and 5% (w/v) of skimmed milk for 30 min. Membranes were incubated overnight at 4° C. with appropriate dilution of the primary antibodies, and were incubated for 1 h at room temperature with secondary antibody. […] Quantifications were calculated with Image J software (NIH) and the data were collected using Excel Software (Microsoft). The loading variations between Western blot lanes were normalized according to the tubulin signal. Quantification of CTFα and AICD were compared to control conditions (considered as 100 in arbitrary units) and are presented for two concentrations of the drug: 1 and 10 μM.
On the technique in general: In western blotting, separated proteins are transferred to a membrane and probed.

Data set [4] deals with CTFα. Description: Quantification of APP-CTFα by Western blot in SY5Y-APPWT cells. The class given is cell-based, Human. To be noted: compared to a control with a value of 100. On the procedure:
as §3, §4, §5

A short description of data set [5]: Cytotoxicity evaluation (MTS assay). The format is cell-based, Human. Conditions: human, SY5Y-APPWT neuroblastoma cells (expressing APP); SY5Y-APPWT cells, 24 h treatment, MTS. On the procedure: Human neuroblastoma cell line SY5Y-APP^WT was used to assess the cytotoxic effects of each compound. SY5Y-APP^WT cells were seeded at 20000 cells/well onto 96-well plates and were cultured in Dulbecco's modified Eagle medium (DMEM, Invitrogen) supplemented with 10% fetal calf serum (PAA), 2 mM L-glutamine (Invitrogen), 1 mM non-essential amino acids (Invitrogen), 50 units/ml penicillin/streptomycin (Invitrogen), and 200 μg G418=geneticin (Invitrogen) (selection for cells expressing APP) in a 5% CO2 humidified incubator at 37° C. After 24 h, the cells were washed and incubated with the compound at 0.1; 0.3; 1; 3; 10; 30 and 100 μM or with DMSO as control diluted in the same culture medium at 37° C. in 5% CO2. After 24 h of treatment, cytotoxicity was determined by using colorimetric MTS assay (CellTiter 96® Aqueous One Solution Cell Proliferation Assay-MTS Promega) according to the protocol of the manufacturer. Absorbance was read at 490 nm and results were expressed as % from control condition considered as 100%.
In general terms: Tetrazolium dyes change colour on reduction, which living cells bring about.

In data set [6] the target is T1, HIS-tagged valosin-containing protein/p97 (VCP/p97) (Homo sapiens, UniProt P55072).
T1 construct: purchased TebuBio
Description: VCP interaction assay (competition with biotinylated probe 4.7). The format is binding. To be noted: compound 60 μM against biotinylated probe 4.7 20 μM. The procedure:
Physical interaction between HIS-tagged valosin-containing protein/p97 (VCP/p97) (TebuBio) and biotinylated probe 4.7 was investigated by Enzyme-Linked Assay (ELA) based on HIS-Select® High Sensitivity Nickel coated plates, used following manufacturer's recommendations (Sigma Aldrich). Other chemical compounds were tested in competition with the biotinylated probe 4.7 in this system. Briefly, nickel beads were incubated overnight at 4° C. with 2% casein blocking solution. After a three-time rinse with wash buffer (0.05% Tween20 in phosphate buffer saline), HIS-tagged VCP/p97 protein (5 μg/ml in PBS) was incubated with nickel beads for 90 min at 25° C. Then, the plate was washed three times. Chemical compounds (60 μM) were incubated 10 min at 25° C. before addition of biotinylated probe 4.7 (20 μM) 30 min at 25° C. After five washes, streptavidin-peroxidase (2 μg/ml) was added during 1 h at 25° C., followed by the peroxidase substrate addition 30 min at RT. Reaction was stopped with 0.5M H2SO4 solution and the optical density was read at 450 nm using a microplate reader (VICTOR X4 Wallac, 2030-0040, PerkinElmer). Competition efficiency was quantified by the loss of signal compared to the control condition.

T1 sequence (P55072 whole entry): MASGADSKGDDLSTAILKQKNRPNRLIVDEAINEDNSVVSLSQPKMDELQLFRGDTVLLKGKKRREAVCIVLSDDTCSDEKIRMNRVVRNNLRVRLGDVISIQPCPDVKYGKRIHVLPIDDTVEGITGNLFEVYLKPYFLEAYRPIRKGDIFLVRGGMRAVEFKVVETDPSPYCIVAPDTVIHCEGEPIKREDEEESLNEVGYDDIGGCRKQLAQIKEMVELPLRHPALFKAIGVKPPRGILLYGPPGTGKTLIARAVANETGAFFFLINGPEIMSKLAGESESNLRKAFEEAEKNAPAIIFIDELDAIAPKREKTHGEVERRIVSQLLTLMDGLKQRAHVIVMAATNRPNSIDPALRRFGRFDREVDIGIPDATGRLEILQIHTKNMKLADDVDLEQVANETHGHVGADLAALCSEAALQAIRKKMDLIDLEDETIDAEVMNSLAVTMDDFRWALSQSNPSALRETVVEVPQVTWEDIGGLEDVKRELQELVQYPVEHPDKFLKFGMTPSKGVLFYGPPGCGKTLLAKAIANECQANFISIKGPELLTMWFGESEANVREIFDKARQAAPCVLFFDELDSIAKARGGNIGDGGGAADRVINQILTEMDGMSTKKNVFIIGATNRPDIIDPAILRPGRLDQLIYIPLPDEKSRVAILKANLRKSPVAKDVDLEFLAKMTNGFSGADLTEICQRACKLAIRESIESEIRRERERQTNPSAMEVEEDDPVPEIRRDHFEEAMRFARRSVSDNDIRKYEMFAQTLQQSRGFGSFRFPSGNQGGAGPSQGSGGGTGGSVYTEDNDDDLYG

For orientation: IC50 means the concentration at which inhibition is half-maximal. A low value points to greater potency in that assay. The term CC50 denotes the concentration that lowers cell viability or growth by half. High values mean lower toxicity to the cells, low ones greater toxicity to the cells. Turning to `CN(C)CCCN1CCN(CCCN2CCc3c([nH]c4ccccc34)C2)CC1` [Compound 3.2d, N,N-dimethyl-3-(4-(3-(1,3,4,9-tetrahydro-1H-beta-carbolin-2-yl)propyl)piperazin-1-yl)propylamine], the 50% inhibitory concentration (IC50) in data set [1] and in data set [2] was over 10 µM each time. Besides, the “AICD (10 μM)” value in data set [3] is 41661 arbitrary units. For the same compound, the “CTFα (10 μM)” value in data set [4] was determined as 1042 arbitrary units. The compound further registered a CC50 at 24 h in data set [5] of over 100 µM. The “VCP (competition efficiency, loss of signal compared to the control)” value in data set [6] was found to be 70%.
`CC(C)CN(CCCN1CCN(CCCN2CCc3c([nH]c4ccccc34)C2c2ccccc2)CC1)CC(C)C` (stereo not drawn) [Compound 3.2a, N,N-diisobutyl-3-{4-[3-(1-phenyl-1,3,4,9-tetrahydro-1H-beta-carbolin-2-yl)propyl]piperazin-1-yl}propylamine]: the IC50 in data set [1] was 2 µM; in data set [2] it was 5 µM.
In the same order, the values of `COc1ccc2[nH]c3c(c2c1)CN(CCCN1CCN(CCN(CC(C)C)CC(C)C)CC1)CC3` [Compound 3.1g, N,N-diisobutyl-2-(4-(3-(8-methoxy-1,3,4,5-tetrahydro-1H-pyrido[4,3-b]indol-2-yl)propyl)piperazin-1-yl)ethylamine] are 2.5 µM and 3.5 µM.
For `CN(C)CCCN1CCN(CCCN2CCc3c([nH]c4ccccc34)C2c2ccccc2)CC1` (stereo not drawn) [Compound 3.2e, N,N-dimethyl-3-(4-(3-(1-phenyl-1,3,4,9-tetrahydro-1H-beta-carbolin-2-yl)propyl)piperazin-1-yl)propylamine], the results for the IC50 in data set [1] and in data set [2] were 2.5 µM and 2 µM, respectively. For the same compound, in data set [3], the “AICD (10 μM)” value came to 4765 arbitrary units. For the same compound, the “CTFα (10 μM)” value in data set [4] is 234 arbitrary units. The compound further returned a half-maximal cytotoxic concentration (CC50) at 24 h in data set [5] of 12 µM.
As for `Cc1ccc2[nH]c3c(c2c1)CN(CCCN1CCN(CCCN(CC(C)C)CC(C)C)CC1)CC3` [Compound 3.1c, N,N-diisobutyl-3-[4-(3-(8-methyl-1,3,4,5-tetrahydro-1H-pyrido[4,3-b]indol-2-yl)propyl)piperazin-1-yl]propylamine], the IC50 in data set [1] is 1 µM; in data set [2], 10 µM. For the same compound, in data set [4], the “CTFα (10 μM)” value was 355 arbitrary units. In data set [5], this compound yielded a CC50 at 24 h of 10 µM.
`c1ccc2c3c([nH]c2c1)CN(CCCN1CCN(CCN2CCCCC2)CC1)CC3` [Compound 3.2j, 1-[2-(piperidin-1-yl)ethyl]-4-(3-{1H,2H,3H,4H,9H-pyrido[3,4-b]indol-2-yl}propyl)piperazine]: the half-maximal inhibitory concentration (IC50) was 5 µM in data set [1] and 3 µM in data set [2]. Also, in data set [5], the half-maximal cytotoxic concentration (CC50) at 24 h is over 100 µM.
In the same order, the values of `Fc1ccc2[nH]c3c(c2c1)CN(CCCN1CCN(CCCN(Cc2ccccc2)Cc2ccccc2)CC1)CC3` [Compound 3.1h, N,N-dibenzyl-3-[4-(3-(8-fluoro-1,3,4,5-tetrahydro-1H-pyrido[4,3-b]indol-2-yl)propyl)piperazin-1-yl]propylamine] are 2.5 µM, 2.5 µM and 4.8 µM.
For `CC(C)CN(CCCN1CCN(CCCN2CCc3c([nH]c4ccc(Cl)cc34)C2)CC1)CC(C)C` [Compound 3.2b, N,N-diisobutyl-3-{4-[3-(6-chloro-1,3,4,9-tetrahydro-1H-beta-carbolin-2-yl)propyl]piperazin-1-yl}propylamine], the concentration for half-maximal inhibition (IC50) in data set [2] is over 10 µM. In addition, the “AICD (10 μM)” value in data set [3] worked out at 7417 arbitrary units. For the same compound, the “CTFα (10 μM)” value in data set [4] stood at 716 arbitrary units. The compound also returned a half-maximal cytotoxic concentration (CC50) at 24 h in data set [5] of over 100 µM.
For the compound `c1ccc2c3c([nH]c2c1)CN(CCCN1CCN(CCCN2CCCCC2)CC1)CC3` [Compound 3.2i, 1-[3-(piperidin-1-yl)propyl]-4-(3-{1H,2H,3H,4H,9H-pyrido[3,4-b]indol-2-yl}propyl)piperazine], the IC50 in data set [1] and in data set [2] was 5 µM in each case. For the same compound, the CC50 at 24 h in data set [5] is over 100 µM.
For the compound `CC(C)CN(CCCN1CCN(CCCN2CCc3[nH]c4ccccc4c3C2)CC1)CC(C)C` [Compound 3.1a, N,N-diisobutyl-3-[4-(3-(1,3,4,5-tetrahydro-1H-pyrido[4,3-b]indol-2-yl)propyl)piperazin-1-yl]propylamine], the half-inhibitory concentration (IC50) in data set [1] is 1.2 µM; in data set [2], 2.1 µM. In addition, the “AICD (10 μM)” value in data set [3] was 1081 arbitrary units.
On to `COc1ccc2[nH]c3c(c2c1)CN(CCCN1CCN(CCCN(CC(C)C)CC(C)C)CC1)CC3` [Compound 3.1b, N,N-diisobutyl-3-(4-(3-(8-methoxy-1,3,4,5-tetrahydro-1H-pyrido[4,3-b]indol-2-yl)propyl)piperazin-1-yl)propylamine], for which, in data set [3], the “AICD (10 μM)” value turned out to be 16400 arbitrary units. The compound further showed a 50% cytotoxic concentration (CC50) at 24 h in data set [5] of over 10 µM.
`CC(C)CN(CCN1CCN(CCCN2CCc3c([nH]c4ccccc34)C2)CC1)CC(C)C` [Compound 3.2h, N,N-diisobutyl-2-{4-[3-(1,3,4,9-tetrahydro-1H-beta-carbolin-2-yl)propyl]piperazin-1-yl}ethylamine]: the IC50 in data set [1] and in data set [2] was 3 µM throughout.
On to `COc1ccc2[nH]c3c(c2c1)CN(CCCN1CCN(CCCN2CCCCC2)CC1)CC3` [Compound 3.1i, 3-(4-(3-(8-methoxy-1,3,4,5-tetrahydro-1H-pyrido[4,3-b]indol-2-yl)propyl)piperazin-1-yl)propylpiperidine], for which the IC50 in data set [1] is 10 µM; in data set [2], over 10 µM. The compound also came in with a CC50 at 24 h in data set [5] of over 100 µM.
